US11746103B2, “ALK-5 inhibitors and uses thereof” (Sumitomo Pharma Oncology, Inc., priority 2020, dated 2023)
Where two headings read alike, the source gives them in different places.

Columns and labels:
[1] = tested on: TGF-β1 mediated alpha-SMA expression in primary human bronchial fibroblasts derived from IPF patients; experiment: Fibroblast to Myofibroblast Transformation (FMT) assay
Protocol: To test the ability of compounds of the invention to inhibit the TGF-β1 dependent transition of fibroblasts to myofibroblasts in a relevant disease model of IPF, a study was carried out using an FMT assay employing lung fibroblasts from IPF patients. In this model the transition of fibroblasts to myofibroblasts is determined by the expression of the biomarker alpha smooth muscle actin (SMA).
Each drug concentration condition was evaluated in biological duplicates. One hour after compound addition, cells were stimulated with 1.25 ng/ml of TGF-01 and cultured for 72 hours thereafter. At the end of 72 hours cells were fixed using formaldehyde. The results were generated using high content imaging after staining cells using the nuclear stain DAPI as well as evaluation of the expression of alpha SMA. […] As a negative control 0.1% DMSO was used matching the DMSO concentration in treated wells.

[2] = tested on: TGF-beta induced SMAD signaling; experiment: RDSR (RD SMAD reporter) Cellular Reporter Assay; format: cell-based; settings: Homo sapiens, 200 pg/ml rhTGF-beta1, 24 h
From the text: TGF-β signaling is triggered when the activated TGF-β homodimer binds to the TGF-β receptor 2, which in turn leads to the recruitment and phosphorylation of TGF-β receptor 1 (ALK5). Activated TGF-β receptor 1 phosphorylates the signal transduction molecules SMAD2 and SMAD3. These bind to common mediator SMAD4 and translocate to the nucleus where they bind to short conserved DNA sequences called the SMAD binding element and induce the transcription of various target genes. […] Certain example compounds were also or alternatively assayed using the RDSR Cellular Reporter Assay. Overview and Design: The RD SMAD reporter (RDSR) cell line was generated by stabily integrating the SMAD cellular reporter plasmid (Promega, pGL4.48[luc2P/SBE/Hygro]) into the human rhabdomyosarcoma cell line RD (ATCC, CCL-136). Once SMAD signaling is triggered, with, for example, the addition of TGF-β 1, receptor activated SMADs bind the SMAD binding elements (SBEs) leading to the expression of intracellular luciferase. To determine the potency of compounds at inhibiting TGF-beta induced SMAD signaling, the RDSR reporter system was utilized. The rhabdomyosarcoma line RD (ATCC, CCL-136) was transfected with a SMAD reporter vector (Promega, E3671) and a polyclonal stable cell line was selected using hygromycin B. The transfected vector contains three copies of a SMAD-binding element (SBE) that drive transcription of the luciferase reporter gene luc2P (Photinus pyralis). luc2P is a synthetically-derived luciferase sequence with humanized codon optimization that is designed for high expression and reduced anomalous transcription. The luc2P gene contains hPEST, a protein destabilization sequence, which allows luc2P protein levels to respond more quickly than those of luc2 to induction of transcription. The intracellular luciferase is quantified by the addition of equal volume (100 μl) of ONE-GLO substrate (Promega, E6120) and read within ten minutes on the Envision plate reader. The stable RDSR cell line was tested by evaluating the response to human TGF-β1 (R&D Systems, 7754-BH-005) as well as human myostatin (R&D Systems, 788-G8-010/CF) in a concentration dependent manner after twenty-four hours of stimulation. […] For compound evaluation, the tool drugs Galunisertib and Vactosertib were included as positive controls. The tool drugs and the compounds of the invention being tested were all incubated with cells for one hour at 37° C. before stimulation with 200 pg/ml rhTGF-beta1 for twenty-four hours. The activity of the reporter was determined with the addition of ONE-GLO (Promega) substrate and luminescence counts collected on the Envision plate reader (Perkin Elmer). […] The activity of compounds of the invention as determined using this method are reported in the third column of Table 1, below.

[3] = biological target: ALK-5 (Homo sapiens (Human), UniProt P36897); experiment: LanthaScreen Eu Kinase Binding Assay, ALK-5; settings: for IC50: read-out: Kinase Inhibition: ALK5 IC50
Protocol: Activity determinations and selectivity were conducted by Thermo Fisher Scientific “SelectScreen™ Biochemical Kinase Profiling Service” using their “LanthaScreen™ Eu Kinase Binding Assay Screening” (www.thermofisher.com/selectscreen). Binding of an Alexa Fluor™ conjugate or “tracer” to a kinase is detected by addition of a Eu-labeled anti-tag antibody. Binding of the tracer and antibody to a kinase results in a high degree of FRET, whereas displacement of the tracer with a kinase inhibitor results in a loss of FRET. This assay is carried out by mixing the compound tested with the reagents and reading, no development step is required. Life Technologies' Kinase Tracers are based on ATP-competitive kinase inhibitors, making them suitable for detection of any compounds that bind to the ATP site. Inhibitors that bind the ATP site include both Type I kinase inhibitors, which bind solely to the ATP site, and Type II inhibitors (e.g., Gleevec®/Imatinib, Sorafenib, BIRB-796), which bind to both the ATP site and a second site often referred to as the allosteric site. […] For 10 point titrations, 3-fold serial dilutions are conducted from the starting concentration (see Table 2 below). [table] All Kinase/Antibody Mixtures are diluted to a 2× working concentration in the specified kinase buffer. The 4× AlexaFluor labeled Tracer is prepared in Kinase Buffer. Bar-coded, low volume, white 384-well plate (Greiner Cat. #784207) […] 2. 3.84 μL—Kinase Buffer […] 4. 4.0 μL—4× Tracer 5. 30-second plate shake 6. 60-minute incubation at room temperature 7. […] The LanthaScreen Eu Kinase Binding Assay data is analyzed using the equations in Table 3 for each set of data points. [table] Data generated were plotted using the graphing software XLfit from IDBS. The dose response curve is curve fit to model number 205.

[4] = tested on: phospho-SMAD2 (Ser 465/467) in A549 xenograft; experiment: A549 xenograft study, tumor phospho SMAD2; format: in vivo, mouse; settings: for phospho SMAD2 levels in tumor (normalized to GAPDH): 10, 50, 75, 100 mg/Kg; for inhibition at 10 mg/kg / inhibition at 50 mg/kg / inhibition at 75 mg/kg / inhibition at 100 mg/kg: Mus musculus, A549, oral gavage, 3 hours after administration, read-out: Percent of p-SMAD2 inhibition compared to vehicle control
From the text: To test compounds for in vivo on-target activity (ALK5/TGF-βR1 inhibition), a study was completed using an A549 murine xenograft model. This model was utilized since an ALK5 inhibitor is expected to reduce the amount of the key TGF-β signaling molecule phosphoSMAD2 in the A549 xenograft cells. The TGF-β mediated phosphorylation in A549 cells takes place at amino acid residue four hundred and sixty-five and four hundred and sixty-seven (both are serine residues).
Eight-week old, female athymic nude mice (Charles River) were injected with approximately four million A549 cells (ATCC, CCL-185). The cells employed were harvested and resuspended in plain RPMI media (no phenol red added) and matrigel (Fisher Scientific) at a one to one ratio. Injection comprised a two-hundred microliter sample injected into the right hind flank of each mouse. Resulting tumors were measured every three days by caliper and as tumors reached an average of one hundred and thirty millimeters cubed, mice were randomized in groups of three.
All compounds were resuspended in 1-Methyl-2-pyrrolidinone (10%) plus 20% Solutol in water (90%). Galunisertib was included as a positive control and given at seventy-five milligram per kilogram to three mice. The drug suspensions were sonicated for fifteen minutes to generate a fine particle suspension before being administered to a subject. Mice were dosed (per oral gavage) at dose levels of one hundred mg/Kg, seventy-five mg/Kg, fifty mg/Kg and ten mg/Kg with three mice in each group. A vehicle control group with three mice was used to establish the baseline level of phospho SMAD2 in the tumor xenograft. Three hours after drug administration, tumors were harvested and stored at negative eighty degrees Celsius until further processing. The phospho SMAD2 levels were determined using the BioPlex Pro anti phospho-SMAD2 (Ser 465/467) beads from Biorad and this signal was normalized using GAPDH levels from each sample (Milliplex MAP GAPDH beads, Sigma/Millipore). Tumors were processed according to kit instructions and beads analyzed using the MagPix instrument by Luminex.

[5] = read-out: RD-SMAD reporter activity

ALK-5, sequence (P36897 34-503): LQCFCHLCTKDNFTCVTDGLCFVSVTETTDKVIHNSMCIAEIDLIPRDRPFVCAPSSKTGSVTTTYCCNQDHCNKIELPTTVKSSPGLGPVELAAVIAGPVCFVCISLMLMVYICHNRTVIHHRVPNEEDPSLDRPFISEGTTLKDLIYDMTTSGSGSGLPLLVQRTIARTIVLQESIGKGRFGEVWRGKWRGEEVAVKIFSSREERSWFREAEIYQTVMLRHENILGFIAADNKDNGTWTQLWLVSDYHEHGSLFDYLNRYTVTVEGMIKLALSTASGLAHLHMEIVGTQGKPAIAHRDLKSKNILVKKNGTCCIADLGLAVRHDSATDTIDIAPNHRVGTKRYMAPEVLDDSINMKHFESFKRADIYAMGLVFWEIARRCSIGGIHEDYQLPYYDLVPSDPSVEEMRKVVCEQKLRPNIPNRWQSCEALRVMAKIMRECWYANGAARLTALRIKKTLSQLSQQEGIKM

IC50 [2, 5] [nM]	Kinase Selectivity: ALK2 IC50/ ALK5 IC50 [3]	IC50 [3] [nM]	Compound	other results
< 100	(++) (10<ALK2/ALK5<100=[++])	< 10	CN1CCN(c2ccc(Nc3nccc(Nc4cnnc5c(Cl)cccc45)n3)cc2)CC1 [EX-49, N4-(8-chlorocinnolin-4-yl)-N2-(4-(4-methylpiperazin-1-yl)phenyl)pyrimidine-2,4-diamine]	
< 100	(++) (10<ALK2/ALK5<100=[++])	< 10	Cc1cc(F)cc2c(Nc3ccnc(Nc4ccc(N5CCN(C)CC5)cc4)n3)cnnc12 [EX-07, N4-(6-fluoro-8-methylcinnolin-4-yl)-N2-(4-(4-methylpiperazin-1-yl)phenyl)pyrimidine-2,4-diamine]	
< 100	(++) (10<ALK2/ALK5<100=[++])	< 10	Cc1cccc2c(Nc3ccnc(Nc4ccc(CN5CCNCC5)cc4)n3)cnnc12 [EX-20, N4-(8-methyl-cinnolin-4-yl)-N2-(4-(piperazin-1-yl-methyl)phenyl)pyrimidine-2,4-diamine]	
< 100	(++) (10<ALK2/ALK5<100=[++])	< 10	Cc1cccc2c(Nc3ccnc(Nc4ccc(CN5CCN(C)CC5)cc4)n3)cnnc12 [EX-26, N4-(8-methylcinnolin-4-yl)-N2-(4-((4-methylpiperazin-1-yl)methyl)phenyl)pyrimidine-2,4-diamine]	

More lines, now with the values behind:

Compound	IC50 [2, 5] [nM]	Kinase Selectivity: ALK2 IC50/ ALK5 IC50 [3]	IC50 [3] [nM]	other results
COC(=O)c1ccc2c(c1)NC(=O)/C2=C(\Nc1ccc(N(C)C(=O)CN2CCN(C)CC2)cc1)c1ccccc1 [Nintedanib, reference compound]				LogM IC50 αSMA ([1]; donor IPF05): −6.5 LogM; Max PIN (%) ([1]; donor IPF05): 92.1%; LogM IC50 αSMA ([1]; donor IPF06): −6.3 LogM; Max PIN (%) ([1]; donor IPF06): 86.8%; LogM IC50 αSMA ([1]; donor IPF08): −6.4 LogM; Max PIN (%) ([1]; donor IPF08): 88.2%
Cc1cccc(-c2nn3c(c2-c2ccnc4ccc(C(N)=O)cc24)CCC3)n1 [Galunisertib, reference compound]				IC50 ([2]; control compounds, read-out: RDSR reporter activity): ~365 nM; LogM IC50 αSMA ([1]; donor IPF05): −5.7 LogM; Max PIN (%) ([1]; donor IPF05): 100.8%; LogM IC50 αSMA ([1]; donor IPF06): −5.9 LogM; Max PIN (%) ([1]; donor IPF06): 104.4%; potentially toxic (>25% loss of nuclei) ([1]; donor IPF06): >−5.5; LogM IC50 αSMA ([1]; donor IPF08): −5.9 LogM; Max PIN (%) ([1]; donor IPF08): 99.6%
Cc1cccc2c(Nc3ccnc(Nc4ccc(N5CCOCC5)c(Cl)c4)n3)cnnc12 [EX-12, N2-(3-chloro-4-morpholino-phenyl)-N4-(8-methyl-cinnolin-4-yl)-pyrimidine-2,4-diamine]	< 100	(++) (10<ALK2/ALK5<100=[++])	< 10	observed level of p-SMAD2 as percent of vehicle-only group ([4]; 100 mg/Kg): 45.5%; phospho SMAD2 levels in tumor (normalized to GAPDH) [4]: reduced the phopho SMAD2 levels (p-SMAD2) in a dose dependent fashion; inhibition at 10 mg/kg [4]: 19.9%; inhibition at 50 mg/kg [4]: 35.8%; inhibition at 75 mg/kg [4]: 40.1%; inhibition at 100 mg/kg ([4]; 100 mg/Kg): 55.5%
Cc1cccc2c(Nc3ccnc(Nc4ccc(N5CCOCC5)c(F)c4)n3)cnnc12 [EX-13, N2-(3-fluoro-4-morpholino-phenyl)-N4-(8-methylcinnolin-4-yl)-pyrimidine-2,4-diamine]	< 100	(++) (10<ALK2/ALK5<100=[++])	< 10	phospho SMAD2 levels in tumor (normalized to GAPDH) [4]: reduced the phopho SMAD2 levels (p-SMAD2) in a dose dependent fashion; inhibition at 10 mg/kg [4]: 37.9%; inhibition at 50 mg/kg [4]: 76.3%; inhibition at 75 mg/kg [4]: 76.8%; inhibition at 100 mg/kg ([4]; 100 mg/Kg): 75.7%
Cc1cccc2c(Nc3ccnc(Nc4ccc(N5CC6CCC(C5)N6C)cc4)n3)cnnc12 [EX-27, N2-(4-(8-methyl-3,8-diazabicyclo[3.2.1]octan-3-yl)phenyl)-N4-(8-methylcinnolin-4-yl)pyrimidine-2,4-diamine]	< 100	(++) (10<ALK2/ALK5<100=[++])	< 10	
Cc1cccc2c(Nc3ccnc(Nc4ccc(N5CC6CC5CN6C)cc4)n3)cnnc12 (stereo not shown) [EX-45, N2-(4-(5-methyl-2,5-diazabicyclo[2.2.1]heptan-2-yl)phenyl)-N4-(8-methylcinnolin-4-yl)pyrimidine-2,4-diamine]	< 100	(++) (10<ALK2/ALK5<100=[++])	< 10	
c1cc(C2CC2)c2nncc(Nc3ccnc(Nc4ccc(N5CCOCC5)cc4)n3)c2c1 [EX-58, N4-(8-cyclopropylcinnolin-4-yl)-N2-(4-morpholinophenyl)pyrimidine-2,4-diamine]	< 100	(++) (10<ALK2/ALK5<100=[++])	< 10	
Cc1cccc2c(Nc3ccnc(Nc4cccc(C5CCNCC5)c4)n3)cnnc12 [EX-36, N4-(8-methylcinnolin-4-yl)-N2-(3-(piperidin-4-yl)phenyl)pyrimidine-2,4-diamine]	< 100	(+) (≤10=[+])	< 10	
